Measured values reported in publication PMC11251039, “Harnessing cholesterol uptake of malaria parasites for therapeutic applications” (EMBO Molecular Medicine, 2024).
“And” between values parts separate entries of the source, which are not always exact repeats. Identical values can stand only once. Like-named read-outs stand apart in the source and are kept apart here.

Tests used:
[1] = system: asexual P. falciparum 3D7 wild-type parasites; test: P. falciparum asexual growth inhibition assay (SYBR Safe DNA replication); assay type: cell-based, Plasmodium falciparum; parameters: Figure 5B dose-response source data (growth, replicate values): unit not given here; settings: for Figure 5B dose-response source data (growth, replicate values): individual replicates; for IC50: 72 h, read-out: IC50, P. falciparum asexual growth inhibition
Protocol: P. falciparum asexual parasite assays commenced with ring-stage parasites at 1% parasitaemia and 1% haematocrit. 200 nM chloroquine (Sigma C6628) or artesunate (Sigma A3731) was used as a no-growth control. DNA replication (indicating growth) was measured at the specified time using SYBR Safe DNA Gel Stain (Invitrogen 33102) and a fluorescence microplate reader (Smilkstein et al, [2004]; Spry et al, [2013]). […]
Growth and Viability Inhibition Assays:
Plasmodium falciparum Growth Inhibition Assays:
P. falciparum parasites were maintained under routine culture conditions in red blood cells and RPMI 1640-Hepes with Glutamax, supplemented with 10 mM D-glucose, 480 μM hypoxanthine, 20 μg/mL gentamicin, 0.375% (w/v) AlbuMAXTM II (Thermo Fisher 11021029), and 2.5% v/v heat-inactivated human serum (17). Cultures were maintained at 37 °C […]
wildtype parasites except for the ring stage survival assay, as specified. Cultures were synchronised with 5% w/v D-sorbitol (18).
Growth inhibition was investigated according to methods described by Smilkstein et al. (19) with modifications by Spry et al. (20). Compounds or solvent controls (DMSO, ethanol, or ethyl acetate) were serially diluted 2-fold across flat-bottom 96-well plates. Culture media without compound was used as a negative control. 200 nM chloroquine (Sigma C6628) or artesunate (Sigma A3731) was used as a positive control to determine background fluorescence. The parasitaemia of a culture containing predominantly ring stage parasites was counted by Giemsa smear. The parasitaemia was adjusted to 1% by addition of fresh uRBCs and added to the plate at a final haematocrit of 1%, with 200 µL per well. The plates were incubated at 37 °C under humid microaerophilic conditions. After 24, 48, or 72 hours, the plates were transferred to a -18 °C freezer to stop the assay and lyse cells. Plates were thawed and lysate was mixed 1:1 with SYBR Safe DNA Gel Stain (Invitrogen 33102) (final concentration 1/10,000) diluted in lysis buffer (20 mM TRIS, 5 mM EDTA, 0.008% w/v Saponin, 0.08% w/v Triton-X 100, pH 7.5). Fluorescence was detected at 490 nm excitation/ 520 nm emission on a FLUOstar Optima fluorescence plate reader (BMG Labtech).

[2] = system: human embryonic kidney cells (HEK293); test: Human embryonic kidney cell viability assay (MTT); assay type: cell-based; settings: for Dose-response data points (Figure 5C): replicate data points; for IC50: Homo sapiens, 96 h, HEK293, read-out: IC50, human embryonic kidney cell inhibition (viability)
Protocol: HEK293 cell viability assays commenced with 5000 cells per well. 10 µg/mL cycloheximide was used as a no-growth control. Metabolic capacity (indicating viability) was measured in an absorbance microplate reader after incubation with 0.45 mg/mL methylthiazolyldiphenyl-tetrazolium bromide (MTT; Sigma M2128) for 2 h followed by crystal solubilisation in SDS. […]
Human Embryonic Kidney Cell Viability Assays:
Human Embryonic Kidney Cell (HEK293) culture:
The HEK293 cell line was maintained under routine culture conditions in DMEM containing 3.7 g/L NaHCO3 supplemented with 10% FBS, 200 μM glutamine, 100 units/mL penicillin, and 100 μg/mL streptomycin at 37 °C in a humidified 5% CO2 incubator.
Cells were detached from a flask using 0.25% Trypsin with 0.2 g/L EDTA (Sigma T4049) and washed with culture media containing no phenol red. Cells were incubated with a serial dilution of each compound, or media/DMSO alone. The protein synthesis inhibitor cycloheximide (Sigma 01810) at 10 µg/mL was used as a positive control to determine background absorbance. 5,000 cells were seeded in each well. After 96 hours, 0.45 mg/mL methylthiazolyldiphenyl-tetrazolium bromide (MTT; Sigma M2128) was added and incubated for a further two hours, before mixing 1.1:1 with 10% w/v sodium dodecyl sulfate (SDS) to solubilise crystals and freezing the plate at -18 °C to stop the assay. […]

[3] = Plasmodium falciparum, 3D7, 72 h

## CC(C)(C)OOCCO[C@H]1CC[C@H]2[C@@H]3CC=C4C[C@@H](O)CC[C@]4(C)[C@H]3CC[C@]12C [BC86D]
[1]; Concentration 0.019532 uM
  Figure 5B dose-response source data (growth, replicate values): 105.3 and 96.53 and 86.36 and 94.74 and 88.38 and 91.4
[1]; Concentration 0.039063 uM
  Figure 5B dose-response source data (growth, replicate values): 101.2 and 93.9 and 88.17 and 67.71 and 70.53 and 73.82 and 95.83 and 90.15 and 93.44
[1]; Concentration 0.078125 uM
  Figure 5B dose-response source data (growth, replicate values): 97.22 and 94.27 and 90.34 and 67.69 and 67.82 and 69.83 and 95.38 and 88.24 and 94.29
[1]; Concentration 0.15625 uM
  Figure 5B dose-response source data (growth, replicate values): 96.36 and 93.34 and 87.86 and 61.44 and 62.01 and 63.2 and 95.83 and 94.74 and 95.36
[1]; Concentration 0.3125 uM
  Figure 5B dose-response source data (growth, replicate values): 73 and 78.58 and 67.15 and 39.54 and 44.2 and 46.55 and 91.73 and 92.12 and 93.7
[1]; Concentration 0.625 uM
  Figure 5B dose-response source data (growth, replicate values): 35.28 and 38.38 and 34.74 and 19.93 and 23.01 and 29.36 and 61.25 and 65.6 and 67.6
[1]; Concentration 1.25 uM
  Figure 5B dose-response source data (growth, replicate values): 21.76 and 22.71 and 19.11 and 8.627 and 13.04 and 18.09 and 18.17 and 19.23 and 20.29
[1]; Concentration 2.5 uM
  Figure 5B dose-response source data (growth, replicate values): 14.75 and 15.93 and 13.24 and 1.608 and 6.601 and 8.38 and 7.495 and 10.61 and 8.324
[1]; Concentration 5 uM
  Figure 5B dose-response source data (growth, replicate values): 10.45 and 16.02 and 6.128 and -6.852 and -3.181 and -0.1793 and 5.173 and 6.43 and 3.972
[1]; Concentration 10 uM
  Figure 5B dose-response source data (growth, replicate values): 4.733 and -2.356 and 1.324 and -0.2487 and 0.35 and -1.359 and 1.305 and 0.4257 and 0.3494
[1]; Concentration 12.5 uM
  Figure 5B dose-response source data (growth, replicate values): 2.181 and -0.01995 and -1.157
[1]; Concentration 25 uM
  Figure 5B dose-response source data (growth, replicate values): 4.45 and 0.3217 and -1.979
[2]; 3.125000 μM
  Dose-response data points (Figure 5C): 115.5 and 95.86 and 88.3 and 98.59 and 112 and 99.93 and 104.6 and 105.3 and 96.8 and 121.6 and 126.6 and 132.2
[2]; 6.250000 μM
  Dose-response data points (Figure 5C): 96.33 and 95.87 and 97.03 and 100.5 and 103.4 and 96.23 and 94.82 and 98.4 and 99.62 and 111.9 and 133.1 and 110.9
[2]; 12.500000 μM
  Dose-response data points (Figure 5C): 82.46 and 90.77 and 77.92 and 80.03 and 95.9 and 97.58 and 94.64 and 94.52 and 89.57 and 87.62 and 85.62 and 86.13
[2]; 25.000000 μM
  Dose-response data points (Figure 5C): 69.58 and 78.66 and 69.32 and 83.79 and 87.18 and 91.53 and 75.15 and 72.67 and 65.58 and 76.71 and 79.77 and 75.18
[2]; 50.000000 μM
  Dose-response data points (Figure 5C): 3.07 and 5.347 and 9.422 and 2.15 and 5.359 and 78.86 and -3.535 and -3.352 and -3.7 and -3.023 and -3.058 and -2.513
[2]; 100.000000 μM
  Dose-response data points (Figure 5C): -1.036 and -1.804 and -2.143 and -2.292 and -2.356 and -1.995 and -3.811 and -3.706 and -3.888 and -2.988 and -3.04 and -3.163

## CC(C)(C)OOCCO[C@H]1CC[C@H]2[C@@H]3CC=C4C[C@@H](O)CC[C@]4(C)[C@H]3CC[C@]12C [C-17-perox]
[1]
  IC50: 0.5 µM
[1]; [3]
  IC50: 0.48 µM
[2]; 96 h HEK293 vs 72 h P. falciparum
  Fold difference in IC50 HEK293 compared to P. falciparum: ~ 60 fold
[2]
  IC50: 31.3 µM

## C[C@]12CC[C@H](O)CC1=CC[C@@H]1[C@@H]2CC[C@]2(C)C(=O)CC[C@@H]12 [DHEA, Dehydroepiandrosterone]
[1]; Concentration 1.5625 uM
  Figure 5B dose-response source data (growth, replicate values): 105 and 100.9 and 101.2 (2×) and 104.8 and 107.1 and 104 and 104.2 and 97.24
[1]; Concentration 3.125 uM
  Figure 5B dose-response source data (growth, replicate values): 99.54 and 98.59 and 99.35 and 103.6 and 96.02 and 105.9 and 103.9 and 101.1 and 100.2
[1]; Concentration 6.25 uM
  Figure 5B dose-response source data (growth, replicate values): 94.64 and 99.33 and 101.7 and 100.2 (2×) and 103.5 and 102.7 and 100.1 and 101.2
[1]; Concentration 12.5 uM
  Figure 5B dose-response source data (growth, replicate values): 97.83 and 97.77 and 98.63 and 101.4 and 104.7 and 102.2 and 102.3 and 100.6 and 97.67
[1]; Concentration 25 uM
  Figure 5B dose-response source data (growth, replicate values): 97.33 and 98.84 and 99.51 and 104.1 and 102.5 and 109.8 and 97.3 and 98.4 and 101.2
[1]; Concentration 50 uM
  Figure 5B dose-response source data (growth, replicate values): 91.17 and 88.79 and 89.21 and 91.36 and 96.36 and 97.35 and 94.23 and 92.68 and 93.65
[1]; Concentration 100 uM
  Figure 5B dose-response source data (growth, replicate values): 80.03 and 78.97 and 77.22 and 68.91 and 88.77 and 89.83 and 76.17 and 73.25 and 71.62
[1]; Concentration 200 uM
  Figure 5B dose-response source data (growth, replicate values): 36.08 and 37.08 and 31 and 29.85 and 51.4 and 44.23 and 15.92 and 13.39 and 11.5
[1]; Concentration 400 uM
  Figure 5B dose-response source data (growth, replicate values): 0.02245 and -0.2944 and -1.594 and 1.899 and 4.652 and 1.525 and -5.885 and -7.232 and -8.092
[1]; [3]
  IC50: 150 µM
[2]; 3.125000 μM
  Dose-response data points (Figure 5C): 108.5 and 113.8 and 102.3 and 90.3 and 90.17 and 89.76
[2]; 6.250000 μM
  Dose-response data points (Figure 5C): 115 and 79.4 and 102.8 and 86.08 and 90.81 and 85.1
[2]; 12.500000 μM
  Dose-response data points (Figure 5C): 83.96 and 112.7 and 100.9 and 95.11 and 92.95 and 84.24 and 113.9 and 109.3 and 94.8 and 88.3 and 83.73 and 81.43
[2]; 25.000000 μM
  Dose-response data points (Figure 5C): 74.02 and 110.4 and 109.9 and 89.17 and 79.81 and 87.49 and 124 and 119.6 and 106.3 and 78.12 and 83.41 and 71.52
[2]; 50.000000 μM
  Dose-response data points (Figure 5C): 65.27 and 101.5 and 98.29 and 73.76 and 69.18 and 75.02 and 111.3 and 62.75 and 93.36 and 87.06 and 86.25 and 84.64
[2]; 100.000000 μM
  Dose-response data points (Figure 5C): 28.83 and 48.06 and 53.97 and 38.87 and 26.11 and 38.89 and 29.34 and 31.58 and 34.33 and 61 and 65.6 and 64
[2]; 200.000000 μM
  Dose-response data points (Figure 5C): -0.4301 and 3.655 and 7.381 and -0.1582 and -0.5868 and -0.7801 and -3.647 and -3.757 and -3.702 and -0.3542 and 0.648 and 0.1847
[2]; 400.000000 μM
  Dose-response data points (Figure 5C): -1.929 and -2.654 and -2.355 and -0.05272 and -1.637 and -1.302 and -3.718 and -4.096 and -4.009 and -3.542 and -3.411 and -3.648
[2]
  IC50: 88.5 µM
